Assay results as given in patent US20070191291A1, “Compound antibacterial drugs comprising n-acetyl-d-glucosamine” (priority 2003, published 2007).

System: E. coli
Assay: Test Example 1: inducing E. coli CGC with N-acetyl-D-glucosamine and antibiotics in different ratios (K-B method, microscopy)
Assay type: cell-based

CC(=O)N[C@@H]1[C@@H](O)[C@H](O)[C@@H](CO)O[C@H]1O [Compound (I), N-acetyl-D-glucosamine]
CGC formation (Compound (I) 150 mg, macrolide (spiramycin) 500 mg): − (if cell length was not greater than 50 μm and cell number was within the range from 0 to 4 in each visual field, it was deemed as CGC negative and was marked with “−”) | CGC formation (Compound (I) 150 mg, macrolide (spiramycin) 700 mg): − (if cell length was not greater than 50 μm and cell number was within the range from 0 to 4 in each visual field, it was deemed as CGC negative and was marked with “−”) | CGC formation (Compound (I) 150 mg, macrolide (spiramycin) 900 mg): − (if cell length was not greater than 50 μm and cell number was within the range from 0 to 4 in each visual field, it was deemed as CGC negative and was marked with “−”) | CGC formation (Compound (I) 150 mg, macrolide (spiramycin) 1100 mg): + (If cell length was more than 50 μm and cell number was more than 5 in each visual field, it was deemed as CGC positive and was marked with “+”) | CGC formation (Compound (I) 150 mg, macrolide (spiramycin) 1300 mg): + (If cell length was more than 50 μm and cell number was more than 5 in each visual field, it was deemed as CGC positive and was marked with “+”) | CGC formation (Compound (I) 150 mg, macrolide (spiramycin) 1500 mg): + (If cell length was more than 50 μm and cell number was more than 5 in each visual field, it was deemed as CGC positive and was marked with “+”) | CGC formation (Compound (I) 150 mg, quinoline (ciprofloxacin, norfloxacin) 150 mg): − (if cell length was not greater than 50 μm and cell number was within the range from 0 to 4 in each visual field, it was deemed as CGC negative and was marked with “−”) | CGC formation (Compound (I) 150 mg, quinoline (ciprofloxacin, norfloxacin) 200 mg): − (if cell length was not greater than 50 μm and cell number was within the range from 0 to 4 in each visual field, it was deemed as CGC negative and was marked with “−”) | CGC formation (Compound (I) 200 mg, aminoglycoside (kanamycin, gentamycin) 50 mg): − (if cell length was not greater than 50 μm and cell number was within the range from 0 to 4 in each visual field, it was deemed as CGC negative and was marked with “−”) | CGC formation (Compound (I) 200 mg, aminoglycoside (kanamycin, gentamycin) 100 mg): − (if cell length was not greater than 50 μm and cell number was within the range from 0 to 4 in each visual field, it was deemed as CGC negative and was marked with “−”) | CGC formation (Compound (I) 200 mg, aminoglycoside (kanamycin, gentamycin) 150 mg): − (if cell length was not greater than 50 μm and cell number was within the range from 0 to 4 in each visual field, it was deemed as CGC negative and was marked with “−”) | CGC formation (Compound (I) 200 mg, aminoglycoside (kanamycin, gentamycin) 200 mg): − (if cell length was not greater than 50 μm and cell number was within the range from 0 to 4 in each visual field, it was deemed as CGC negative and was marked with “−”) | CGC formation (Compound (I) 200 mg, aminoglycoside (kanamycin, gentamycin) 300 mg): − (if cell length was not greater than 50 μm and cell number was within the range from 0 to 4 in each visual field, it was deemed as CGC negative and was marked with “−”) | CGC formation (Compound (I) 200 mg, aminoglycoside (kanamycin, gentamycin) 400 mg): + (If cell length was more than 50 μm and cell number was more than 5 in each visual field, it was deemed as CGC positive and was marked with “+”) | CGC formation (Compound (I) 200 mg, aminoglycoside (kanamycin, gentamycin) 500 mg): + (If cell length was more than 50 μm and cell number was more than 5 in each visual field, it was deemed as CGC positive and was marked with “+”) | CGC formation (Compound (I) 200 mg, macrolide (spiramycin) 300 mg): − (if cell length was not greater than 50 μm and cell number was within the range from 0 to 4 in each visual field, it was deemed as CGC negative and was marked with “−”) | CGC formation (Compound (I) 200 mg, macrolide (spiramycin) 500 mg): − (if cell length was not greater than 50 μm and cell number was within the range from 0 to 4 in each visual field, it was deemed as CGC negative and was marked with “−”) | CGC formation (Compound (I) 200 mg, macrolide (spiramycin) 700 mg): − (if cell length was not greater than 50 μm and cell number was within the range from 0 to 4 in each visual field, it was deemed as CGC negative and was marked with “−”) | CGC formation (Compound (I) 200 mg, macrolide (spiramycin) 900 mg): − (if cell length was not greater than 50 μm and cell number was within the range from 0 to 4 in each visual field, it was deemed as CGC negative and was marked with “−”) | CGC formation (Compound (I) 200 mg, macrolide (spiramycin) 1100 mg): − (if cell length was not greater than 50 μm and cell number was within the range from 0 to 4 in each visual field, it was deemed as CGC negative and was marked with “−”) | CGC formation (Compound (I) 200 mg, macrolide (spiramycin) 1300 mg): + (If cell length was more than 50 μm and cell number was more than 5 in each visual field, it was deemed as CGC positive and was marked with “+”) | CGC formation (Compound (I) 200 mg, macrolide (spiramycin) 1500 mg): + (If cell length was more than 50 μm and cell number was more than 5 in each visual field, it was deemed as CGC positive and was marked with “+”) | CGC formation (Compound (I) 250 mg, aminoglycoside (kanamycin, gentamycin) 50 mg): − (if cell length was not greater than 50 μm and cell number was within the range from 0 to 4 in each visual field, it was deemed as CGC negative and was marked with “−”) | CGC formation (Compound (I) 250 mg, aminoglycoside (kanamycin, gentamycin) 100 mg): − (if cell length was not greater than 50 μm and cell number was within the range from 0 to 4 in each visual field, it was deemed as CGC negative and was marked with “−”) | CGC formation (Compound (I) 250 mg, aminoglycoside (kanamycin, gentamycin) 150 mg): − (if cell length was not greater than 50 μm and cell number was within the range from 0 to 4 in each visual field, it was deemed as CGC negative and was marked with “−”) | CGC formation (Compound (I) 250 mg, aminoglycoside (kanamycin, gentamycin) 200 mg): − (if cell length was not greater than 50 μm and cell number was within the range from 0 to 4 in each visual field, it was deemed as CGC negative and was marked with “−”) | CGC formation (Compound (I) 250 mg, aminoglycoside (kanamycin, gentamycin) 300 mg): − (if cell length was not greater than 50 μm and cell number was within the range from 0 to 4 in each visual field, it was deemed as CGC negative and was marked with “−”) | CGC formation (Compound (I) 250 mg, aminoglycoside (kanamycin, gentamycin) 400 mg): − (if cell length was not greater than 50 μm and cell number was within the range from 0 to 4 in each visual field, it was deemed as CGC negative and was marked with “−”) | CGC formation (Compound (I) 250 mg, aminoglycoside (kanamycin, gentamycin) 500 mg): + (If cell length was more than 50 μm and cell number was more than 5 in each visual field, it was deemed as CGC positive and was marked with “+”) | CGC formation (Compound (I) 250 mg, macrolide (spiramycin) 300 mg): − (if cell length was not greater than 50 μm and cell number was within the range from 0 to 4 in each visual field, it was deemed as CGC negative and was marked with “−”) | CGC formation (Compound (I) 250 mg, macrolide (spiramycin) 500 mg): − (if cell length was not greater than 50 μm and cell number was within the range from 0 to 4 in each visual field, it was deemed as CGC negative and was marked with “−”) | CGC formation (Compound (I) 250 mg, macrolide (spiramycin) 700 mg): − (if cell length was not greater than 50 μm and cell number was within the range from 0 to 4 in each visual field, it was deemed as CGC negative and was marked with “−”) | CGC formation (Compound (I) 250 mg, macrolide (spiramycin) 900 mg): − (if cell length was not greater than 50 μm and cell number was within the range from 0 to 4 in each visual field, it was deemed as CGC negative and was marked with “−”) | CGC formation (Compound (I) 250 mg, macrolide (spiramycin) 1100 mg): − (if cell length was not greater than 50 μm and cell number was within the range from 0 to 4 in each visual field, it was deemed as CGC negative and was marked with “−”) | CGC formation (Compound (I) 250 mg, macrolide (spiramycin) 1300 mg): − (if cell length was not greater than 50 μm and cell number was within the range from 0 to 4 in each visual field, it was deemed as CGC negative and was marked with “−”) | CGC formation (Compound (I) 250 mg, macrolide (spiramycin) 1500 mg): + (If cell length was more than 50 μm and cell number was more than 5 in each visual field, it was deemed as CGC positive and was marked with “+”) | CGC formation (Compound (I) 300 mg, aminoglycoside (kanamycin, gentamycin) 50 mg): − (if cell length was not greater than 50 μm and cell number was within the range from 0 to 4 in each visual field, it was deemed as CGC negative and was marked with “−”) | CGC formation (Compound (I) 300 mg, aminoglycoside (kanamycin, gentamycin) 100 mg): − (if cell length was not greater than 50 μm and cell number was within the range from 0 to 4 in each visual field, it was deemed as CGC negative and was marked with “−”) | CGC formation (Compound (I) 300 mg, aminoglycoside (kanamycin, gentamycin) 150 mg): − (if cell length was not greater than 50 μm and cell number was within the range from 0 to 4 in each visual field, it was deemed as CGC negative and was marked with “−”) | CGC formation (Compound (I) 300 mg, aminoglycoside (kanamycin, gentamycin) 200 mg): − (if cell length was not greater than 50 μm and cell number was within the range from 0 to 4 in each visual field, it was deemed as CGC negative and was marked with “−”) | CGC formation (Compound (I) 300 mg, aminoglycoside (kanamycin, gentamycin) 300 mg): − (if cell length was not greater than 50 μm and cell number was within the range from 0 to 4 in each visual field, it was deemed as CGC negative and was marked with “−”) | CGC formation (Compound (I) 300 mg, aminoglycoside (kanamycin, gentamycin) 400 mg): − (if cell length was not greater than 50 μm and cell number was within the range from 0 to 4 in each visual field, it was deemed as CGC negative and was marked with “−”) | CGC formation (Compound (I) 300 mg, aminoglycoside (kanamycin, gentamycin) 500 mg): − (if cell length was not greater than 50 μm and cell number was within the range from 0 to 4 in each visual field, it was deemed as CGC negative and was marked with “−”) | CGC formation (Compound (I) 300 mg, macrolide (spiramycin) 300 mg): − (if cell length was not greater than 50 μm and cell number was within the range from 0 to 4 in each visual field, it was deemed as CGC negative and was marked with “−”) | CGC formation (Compound (I) 300 mg, macrolide (spiramycin) 500 mg): − (if cell length was not greater than 50 μm and cell number was within the range from 0 to 4 in each visual field, it was deemed as CGC negative and was marked with “−”) | CGC formation (Compound (I) 300 mg, macrolide (spiramycin) 700 mg): − (if cell length was not greater than 50 μm and cell number was within the range from 0 to 4 in each visual field, it was deemed as CGC negative and was marked with “−”) | CGC formation (Compound (I) 300 mg, macrolide (spiramycin) 900 mg): − (if cell length was not greater than 50 μm and cell number was within the range from 0 to 4 in each visual field, it was deemed as CGC negative and was marked with “−”) | CGC formation (Compound (I) 300 mg, macrolide (spiramycin) 1100 mg): − (if cell length was not greater than 50 μm and cell number was within the range from 0 to 4 in each visual field, it was deemed as CGC negative and was marked with “−”) | CGC formation (Compound (I) 300 mg, macrolide (spiramycin) 1300 mg): − (if cell length was not greater than 50 μm and cell number was within the range from 0 to 4 in each visual field, it was deemed as CGC negative and was marked with “−”) | CGC formation (Compound (I) 300 mg, macrolide (spiramycin) 1500 mg): − (if cell length was not greater than 50 μm and cell number was within the range from 0 to 4 in each visual field, it was deemed as CGC negative and was marked with “−”)
